{"source": "patent US4115385A", "about": "“Antibacterial 3-(5-tetrazolyl) penam compounds” (Pfizer Inc., priority 1977, dated 1978)", "data": [{"tested_on": "Streptococcus pyogenes", "assay": "In vitro minimum inhibitory concentration (MIC) vs. Strep. pyogenes", "assay_type": "cell-based", "conditions": "Streptococcus pyogenes, read-out: MIC vs. Strep. pyogenes", "how_it_was_run": "(§1)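 Broth inoculated with bacteria and test antibiotic, incubated overnight and read visually; MIC is the lowest concentration preventing turbidity. Test preparations also contain some of the corresponding tetrazole tautomer.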", "units": {"MIC": "µg/mL"}, "values": [{"molecule": "CC1(C)S[C@@H]2[C@H](NC(=O)[C@H](NC(=O)CNC(=O)Nc3ccccc3)c3ccccc3)C(=O)N2[C@H]1c1nnn[nH]1", "MIC": "< 0.1"}, {"molecule": "CC1(C)S[C@@H]2[C@H](NC(=O)Nc3ccccc3)C(=O)N2[C@H]1c1nnn[nH]1", "note": "[3-phenylcarbamoyl, 6-(3-Phenylureido)-2,2-dimethyl-3-(5-tetrazolyl)penam]", "MIC": "< 0.1"}, {"molecule": "CC1(C)S[C@@H]2[C@H](NC(=O)[C@H](NC(=O)CNS(=O)(=O)c3ccccc3)c3ccccc3)C(=O)N2[C@H]1c1nn[nH]n1", "MIC": "< 0.1"}, {"molecule": "CC1(C)S[C@@H]2[C@H](NC(=O)Cc3ccc(CN=[N+]=[N-])s3)C(=O)N2[C@H]1c1nnn[nH]1", "note": "[2-(5-azidomethyl-2-thienyl)-acetyl, 6-(2-[5-Azidomethyl-2-thienyl]acetamido)-2,2-dimethyl-3-(5-tetrazolyl)penam]", "MIC": "≤ 0.1"}, {"molecule": "CC1(C)S[C@@H]2[C@H](NC(=O)[C@H](NC(=O)Cc3ccc([N+](=O)[O-])cc3)c3ccccc3)C(=O)N2[C@H]1c1nn[nH]n1", "note": "[6-(D-2-[2-(4-nitrophenyl)acetamido]-2-phenylacetamido)-2,2-dimethyl-3-(5-tetrazolyl)penam]", "MIC": "< 0.1"}, {"molecule": "CC1(C)S[C@@H]2[C@H](NC(=O)[C@H](N)C3CCCO3)C(=O)N2[C@H]1c1nnn[nH]1", "note": "(stereo partly drawn) [D-2-amino-2-(2-tetrahydrofuryl)acetyl]", "MIC": "< 0.1"}, {"molecule": "CC1(C)S[C@@H]2[C@H](NC(=O)Cc3ccccc3CN=[N+]=[N-])C(=O)N2[C@H]1c1nnn[nH]1", "note": "[2-(2-azidomethylphenyl)acetyl, 6-(2-[2-Azidomethylphenyl]acetamido)-2,2-dimethyl-3-(5-tetrazolyl)penam]", "MIC": "≤ 0.1"}, {"molecule": "CC1(C)S[C@@H]2[C@H](NC(=O)[C@H](NC(=O)OCc3ccccc3)c3ccccc3)C(=O)N2[C@H]1c1nnn[nH]1", "MIC": "< 0.1"}, {"molecule": "CC1(C)S[C@@H]2[C@H](NC(=O)[C@H](NC(=O)CNS(C)(=O)=O)c3ccccc3)C(=O)N2[C@H]1c1nn[nH]n1", "MIC": "< 0.1"}, {"molecule": "CNC(=N)NC(=O)NCC(=O)N[C@@H](C(=O)N[C@@H]1C(=O)N2[C@@H]1SC(C)(C)[C@@H]2c1nn[nH]n1)c1ccccc1", "MIC": "< 0.1"}, {"molecule": "CC1(C)S[C@@H]2[C@H](NC(=O)[C@H](NC(=O)CNC(=O)NC(=N)NCc3ccccc3)c3ccccc3)C(=O)N2[C@H]1c1nn[nH]n1", "MIC": 0.1}, {"molecule": "CC1(C)S[C@@H]2[C@H](NC(=O)[C@H](NC(=O)NC(N)=O)c3ccccc3)C(=O)N2[C@H]1c1nnn[nH]1", "note": "[D-2-allophanamido-2-phenylacetyl, 6-(D-2-Allophanamido-2-phenylacetamido)-2,2-dimethyl-3-(5-tetrazolyl)penam]", "MIC": "< 0.1"}, {"molecule": "CC1(C)S[C@@H]2[C@H](NC(=O)[C@H](NC(=O)CCNC(=N)c3cc(Br)cc(Br)c3)c3ccccc3)C(=O)N2[C@H]1c1nnn[nH]1", "MIC": "< 0.1"}, {"molecule": "CC1(C)S[C@@H]2[C@H](NC(=O)Cc3cccc(OCCN)c3)C(=O)N2[C@H]1c1nn[nH]n1", "note": "[2-(3-[2-aminoethoxy]phenyl)acetyl, 6-(2-[3-(2-Aminoethoxy)phenyl]acetamido)-2,2-dimethyl-3-(5-tetrazolyl)penam]", "MIC": "< 0.1"}, {"molecule": "CCNC(=O)NCC(=O)N[C@@H](C(=O)N[C@@H]1C(=O)N2[C@@H]1SC(C)(C)[C@@H]2c1nnn[nH]1)c1ccccc1", "note": "[6-(D-2-[2-(3-Ethylureiod)acetamido]-2-phenylacetamido)-2,2-dimethyl-3-(5-tetrazolyl)penam]", "MIC": "< 0.1"}, {"molecule": "CC1(C)S[C@@H]2[C@H](NC(=O)[C@H](NC(=O)CCNC(=O)c3ccco3)c3ccccc3)C(=O)N2[C@H]1c1nnn[nH]1", "MIC": "< 0.1"}, {"molecule": "CC1(C)S[C@@H]2[C@H](NC(=O)[C@H](NC(=O)C(=Cc3ccc(Cl)cc3)C(=O)O)c3ccccc3)C(=O)N2[C@H]1c1nnn[nH]1", "note": "[6-(D-2-[2-carboxy-2(p-chlorophenyl)acrylamido]-2-phenylacetamido)-2,2-dimethyl-3-(5-tetrazolyl)penam]", "MIC": "< 0.1"}, {"molecule": "CC(=N)NCCC(=O)N[C@@H](C(=O)N[C@@H]1C(=O)N2[C@@H]1SC(C)(C)[C@@H]2c1nnn[nH]1)c1ccccc1", "MIC": "< 0.1"}, {"molecule": "CNC(=O)NCCC(=O)N[C@@H](C(=O)N[C@@H]1C(=O)N2[C@@H]1SC(C)(C)[C@@H]2c1nnn[nH]1)c1ccccc1", "MIC": "< 0.1"}, {"molecule": "CCCC(=O)NC(=O)N[C@@H](C(=O)N[C@@H]1C(=O)N2[C@@H]1SC(C)(C)[C@@H]2c1nn[nH]n1)c1ccccc1", "note": "[2-(3-butyrylureido)-2-phenylacetyl]", "MIC": "< 0.1"}, {"molecule": "CC1(C)S[C@@H]2[C@H](NC(=O)[C@H](NC(=O)CCNC(=N)c3ccncc3)c3ccccc3)C(=O)N2[C@H]1c1nnn[nH]1", "MIC": "< 0.1"}, {"molecule": "CC1(C)S[C@@H]2[C@H](NC(=O)Cc3ccccc3OCCN)C(=O)N2[C@H]1c1nn[nH]n1", "note": "[2-(o-[2-aminoethoxy]phenyl)acetyl, 6-(2-[2-(2-Aminoethoxy)phenyl]acetamido)-2,2-dimethyl-3-(5-tetrazolyl)penam]", "MIC": "< 0.1"}, {"molecule": "CC1(C)S[C@@H]2[C@H](NC(=O)[C@H](NC(=O)Cc3cccs3)c3ccccc3)C(=O)N2[C@H]1c1nnn[nH]1", "MIC": 0.1}, {"molecule": "CC1(C)S[C@@H]2[C@H](NC(=O)Cc3sccc3CN=[N+]=[N-])C(=O)N2[C@H]1c1nnn[nH]1", "note": "[2-(3-azidomethyl-2-thienyl-acetyl, 6-(2-[3-Azidomethyl-2-thienyl]acetamido)-2,2-dimethyl-3-(5-tetrazolyl)penam]", "MIC": "≤ 0.1"}, {"molecule": "COc1ccc(CC(=O)N[C@@H](C(=O)N[C@@H]2C(=O)N3[C@@H]2SC(C)(C)[C@@H]3c2nnn[nH]2)c2ccccc2)cc1", "MIC": 0.1}, {"molecule": "CC1(C)S[C@@H]2[C@H](NC(=O)[C@H](N)c3ccc(O)c(Cl)c3)C(=O)N2[C@H]1c1nnn[nH]1", "note": "[6-(D-2-amino-2-[3-chloro-4-hydroxyphenyl]acetamido)-2,2-dimethyl-3-(5-tetrazolyl)penam]", "MIC": 0.1}]}, {"tested_on": "Streptococcus pyogenes", "assay": "In vitro minimum inhibitory concentration (MIC) vs. Strep. pyogenes", "assay_type": "cell-based", "conditions": "Streptococcus pyogenes; Table II; two-fold serial dilution, Brain-Heart Infusion broth, overnight; read-out: MIC vs. Strep. pyogenes", "how_it_was_run": "as §1", "units": {"MIC": "µg/mL"}, "values": [{"molecule": "COc1cccc(OC)c1C(=O)N[C@@H]1C(=O)N2[C@@H]1SC(C)(C)[C@@H]2c1nnn[nH]1", "note": "[2,6-dimethoxybenzoyl, 6-(2,6-dimethoxybenzamido)-2,2-dimethyl-3-(5-tetrazolyl)penam]", "MIC": 0.2}, {"molecule": "CC1(C)S[C@@H]2[C@H](NC(=O)CSc3ccccc3CN)C(=O)N2[C@H]1c1nnn[nH]1", "note": "[2-(2-[aminomethyl]phenylthio)acetyl]", "MIC": 1.56}, {"molecule": "CC1(C)S[C@@H]2[C@H](NC(=O)[C@H](NC(=O)CNC(=O)NC(=N)N)c3ccc(O)cc3)C(=O)N2[C@H]1c1nnn[nH]1", "note": "[6-(D-2-[2-(3-[guanyl]ureido)acetamido]-2-[4-hydroxyphenyl]acetamido)-2,2-dimethyl-3-(5-tetrazolyl)penam]", "MIC": 0.004}, {"molecule": "CC1(C)S[C@@H]2[C@H](NC(=O)[C@H](NC(=O)CNC(=O)NC(=N)c3ccccc3)c3ccccc3)C(=O)N2[C@H]1c1nnn[nH]1", "MIC": 0.78}, {"molecule": "CC1(C)S[C@@H]2[C@H](NC(=O)[C@H](NC(=O)CNC(=N)c3ncccn3)c3ccccc3)C(=O)N2[C@H]1c1nnn[nH]1", "MIC": 0.78}, {"molecule": "CC1(C)S[C@@H]2[C@H](NC(=O)[C@H](NC(=O)CNC(=N)c3cccc(C#N)c3)c3ccccc3)C(=O)N2[C@H]1c1nnn[nH]1", "MIC": 6.25}, {"molecule": "CCN=C(NCC)SCC(=O)N[C@@H](C(=O)N[C@@H]1C(=O)N2[C@@H]1SC(C)(C)[C@@H]2c1nn[nH]n1)c1ccccc1", "MIC": 0.004}, {"molecule": "CC(=O)NC(=S)N[C@@H](C(=O)N[C@@H]1C(=O)N2[C@@H]1SC(C)(C)[C@@H]2c1nn[nH]n1)c1ccccc1", "MIC": 3.2}, {"molecule": "Cc1cc(C)cc(C(=N)NCC(=O)N[C@@H]2C(=O)N3[C@@H]2SC(C)(C)[C@@H]3c2nnn[nH]2)c1", "note": "[2-(3,5-dimethylbenzamidino)acetyl]", "MIC": 0.39}, {"molecule": "COc1ccc(C(=N)NC(=O)NCC(=O)N[C@@H](C(=O)N[C@@H]2C(=O)N3[C@@H]2SC(C)(C)[C@@H]3c2nnn[nH]2)c2ccccc2)cc1", "MIC": 1.56}, {"molecule": "CC1(C)S[C@@H]2[C@H](NC(=O)C(CN)c3ccccc3)C(=O)N2[C@H]1c1nnn[nH]1", "note": "(mixture of isomers) [DL-3-amino-2-phenylpropionyl, 6-(DL-3-amino-2-phenylpropionamido)-2,2-dimethyl-3-(5-tetrazolyl)penam]", "MIC": 12.5}, {"molecule": "CC1(C)S[C@@H]2[C@H](NC(=O)[C@H](NC(=O)c3ccncc3)c3ccccc3)C(=O)N2[C@H]1c1nnn[nH]1", "MIC": 3.12}, {"molecule": "CC1(C)S[C@@H]2[C@H](NC(=O)[C@H](NC(=O)CNC(=O)NC(=N)NCC3CCCCC3)c3ccccc3)C(=O)N2[C@H]1c1nn[nH]n1", "MIC": 0.2}, {"molecule": "CC1(C)S[C@@H]2[C@H](NC(=O)[C@H](NC(=O)CNC(=O)NS(C)(=O)=O)c3ccccc3)C(=O)N2[C@H]1c1nnn[nH]1", "MIC": 0.2}, {"molecule": "CCS(=O)(=O)N[C@@H](C(=O)N[C@@H]1C(=O)N2[C@@H]1SC(C)(C)[C@@H]2c1nn[nH]n1)c1ccccc1", "note": "[D-2-(ethanesulfonamido)-2-phenylacetyl]", "MIC": 0.39}, {"molecule": "CC1(C)S[C@@H]2[C@H](NC(=O)[C@H](NS(=O)(=O)c3ccc4ccccc4c3)c3ccccc3)C(=O)N2[C@H]1c1nn[nH]n1", "MIC": 0.2}, {"molecule": "CCNC(=S)NCCC(=O)N[C@@H](C(=O)N[C@@H]1C(=O)N2[C@@H]1SC(C)(C)[C@@H]2c1nnn[nH]1)c1ccccc1", "MIC": 0.39}, {"molecule": "CC(=O)C(=O)N[C@@H](C(=O)N[C@@H]1C(=O)N2[C@@H]1SC(C)(C)[C@@H]2c1nnn[nH]1)c1ccccc1", "note": "[D-2-(acetylformamido)-2-phenylacetyl]", "MIC": 50}, {"molecule": "CNC(=O)N[C@@H](C(=O)N[C@@H]1C(=O)N2[C@@H]1SC(C)(C)[C@@H]2c1nnn[nH]1)c1ccccc1", "note": "[D-2-(3-methylureido)-2-phenylacetyl]", "MIC": 50}, {"molecule": "CC1(C)S[C@@H]2[C@H](NC(=O)[C@H](NS(=O)(=O)O)c3ccccc3)C(=O)N2[C@H]1c1nnn[nH]1", "note": "[D-2-sulfoamino-2-phenylacetyl, 6-(D-2-sulfoamino-2-phenylacetamido)-2,2-dimethyl-3-(5-tetrazolyl)penam]", "MIC": 12.5}, {"molecule": "CCCC(=O)N[C@@H](C(=O)N[C@@H]1C(=O)N2[C@@H]1SC(C)(C)[C@@H]2c1nnn[nH]1)c1ccccc1", "note": "[D-2-(butyramido)-2-phenylacetyl]", "MIC": 0.39}]}, {"tested_on": "Streptococcus pyogenes", "assay": "In vitro minimum inhibitory concentration (MIC) vs. Strep. pyogenes", "assay_type": "cell-based", "conditions": "Streptococcus pyogenes; Table IV; read-out: MIC vs. Strep. pyogenes", "how_it_was_run": "as §1", "units": {"MIC": "µg/mL"}, "values": [{"molecule": "CN(C)C=N[C@@H]1C(=O)N2[C@@H]1SC(C)(C)[C@@H]2c1nnn[nH]1", "note": "[6-([Dimethylamino]methyleneamino)-2,2-dimethyl-3-(5-tetrazolyl)penam]", "MIC": 12.5}]}, {"tested_on": "Streptococcus pyogenes", "assay": "In vitro minimum inhibitory concentration (MIC) vs. Strep. pyogenes", "assay_type": "cell-based", "conditions": "Table IV", "how_it_was_run": "as §1", "units": {"MIC vs. Strep. pyogenes": "µg/mL"}, "values": [{"molecule": "6-(2-[2-Aminomethylphenyl]acetamido)-2,2-dimethyl-3-(1-[2]-pivaloyloxymethyltetrazol-5-yl)penam", "MIC vs. Strep. pyogenes": "< 0.1"}]}]}
